Reference: ChEMBL document CHEMBL1150095, “Antitumor activity and stereochemistry of acetylenic alcohols from the sponge Cribrochalina vasculum” (1995)

Experiments:
Assay type in all cases: functional
U-251 = test: Antitumor activity against human U251 cells
SK-MEL-2 = test: Antitumor activity against human SK-MEL-2 cells
OVCAR-3 = test: Antitumor activity against human OVCAR-3 cells
OVCAR-4 = test: Antitumor activity against human OVCAR4 cells
TK-10 = test: Antitumor activity against human TK10 cells
SR = test: Antitumor activity against human SR cells
HOP-62 = test: Antitumor activity against human HOP62 cells
Malme-3M = test: Antitumor activity against human MALME-3M cells
SF-539 = test: Antitumor activity against human SF539 cells
NCI-H322M = test: Antitumor activity against human NCI-H322M cells
A549 = test: Antitumor activity against human A549 cells
IGROV-1 = test: Antitumor activity against human IGROV1 cells
MDA-MB-435 = test: Antitumor activity against human MDA-MB-435 cells
SK-OV-3 = test: Antitumor activity against human SKOV3 cells
NCI-H23 = test: Antitumor activity against human NCI-H23 cells
SN12C = test: Antitumor activity against human SN12C cells
OVCAR-8 = test: Antitumor activity against human OVCAR8 cells
CAKI-1 = test: Antitumor activity against human Caki1 cells
UACC-257 = test: Antitumor activity against human UACC257 cells
EKVX = test: Antitumor activity against human EKVX cells
SK-MEL-5 = test: Antitumor activity against human SK-MEL-5 cells
[1] = Antitumor activity against human Hs 578T cells
HCC 2998 = test: Antitumor activity against human HCC2998 cells
M14 = test: Antitumor activity against human M14 cells
DU-145 = test: Antitumor activity against human DU145 cells
COLO 205 = test: Antitumor activity against human COLO205 cells
HOP-92 = test: Antitumor activity against human HOP92 cells
OVCAR-5 = test: Antitumor activity against human OVCAR5 cells
SW-620 = test: Antitumor activity against human SW620 cells
SF-268 = test: Antitumor activity against human SF268 cells
[2] = read-out: pLC50 (the source's name) (converted)

## C#C[C@@H](O)/C=C/CCCCCCCCC/C=C\CCCCCC
U-251; [2]
  CC50: 138 nM
U-251; read-out: pTGI (converted)
  TGI: 74.1 nM
SK-MEL-2
  GI50: 8.13 nM
SK-MEL-2; [2]
  CC50: 83.2 nM
SK-MEL-2; read-out: pTGI (converted)
  TGI: 23.4 nM
OVCAR-3
  GI50: 49 nM
OVCAR-3; [2]
  CC50: 145 nM
OVCAR-3; read-out: pTGI (converted)
  TGI: 85.1 nM
OVCAR-4
  GI50: 18.6 nM
OVCAR-4; [2]
  CC50: 112 nM
OVCAR-4; read-out: pTGI (converted)
  TGI: 51.3 nM
TK-10
  GI50: 60.3 nM
TK-10; [2]
  CC50: 155 nM
TK-10; read-out: pTGI (converted)
  TGI: 97.7 nM
SR
  GI50: 15.5 nM
SR; [2]
  CC50: 174 nM
SR; read-out: pTGI (converted)
  TGI: 55 nM
HOP-62
  GI50: 52.5 nM
HOP-62; [2]
  CC50: 151 nM
HOP-62; read-out: pTGI (converted)
  TGI: 89.1 nM
Malme-3M
  GI50: 6.31 nM
Malme-3M; [2]
  CC50: 72.4 nM
Malme-3M; read-out: pTGI (converted)
  TGI: 20.4 nM
SF-539
  GI50: 44.7 nM
SF-539; [2]
  CC50: 141 nM
SF-539; read-out: pTGI (converted)
  TGI: 79.4 nM
NCI-H322M
  GI50: 53.7 nM
NCI-H322M; [2]
  CC50: 151 nM
NCI-H322M; read-out: pTGI (converted)
  TGI: 91.2 nM
A549
  GI50: 45.7 nM
A549; [2]
  CC50: 148 nM
A549; read-out: pTGI (converted)
  TGI: 83.2 nM
IGROV-1
  GI50: 0.562 nM
IGROV-1; [2]
  CC50: 2.19 nM
IGROV-1; read-out: pTGI (converted)
  TGI: 1.12 nM
MDA-MB-435
  GI50: 26.9 nM
MDA-MB-435; [2]
  CC50: 126 nM
MDA-MB-435; read-out: pTGI (converted)
  TGI: 57.5 nM
SK-OV-3
  GI50: 61.7 nM
SK-OV-3; [2]
  CC50: 158 nM
SK-OV-3; read-out: pTGI (converted)
  TGI: 100 nM
NCI-H23
  GI50: 13.5 nM
NCI-H23; [2]
  CC50: 110 nM
NCI-H23; read-out: pTGI (converted)
  TGI: 45.7 nM
SN12C
  GI50: 28.8 nM
SN12C; [2]
  CC50: 123 nM
SN12C; read-out: pTGI (converted)
  TGI: 58.9 nM
OVCAR-8
  GI50: 37.1 nM
OVCAR-8; [2]
  CC50: 132 nM
OVCAR-8; read-out: pTGI
  TGI: 70.8 nM
CAKI-1
  GI50: 52.5 nM
CAKI-1; [2]
  CC50: 162 nM
CAKI-1; read-out: pTGI (converted)
  TGI: 91.2 nM
UACC-257
  GI50: 32.4 nM
UACC-257; [2]
  CC50: 126 nM
UACC-257; read-out: pTGI (converted)
  TGI: 64.6 nM
EKVX
  GI50: 46.8 nM
EKVX; [2]
  CC50: 145 nM
EKVX; read-out: pTGI (converted)
  TGI: 81.3 nM
SK-MEL-5
  GI50: 32.4 nM
SK-MEL-5; [2]
  CC50: 129 nM
SK-MEL-5; read-out: pTGI (converted)
  TGI: 64.6 nM
[1]
  GI50: 44.7 nM
[1]; [2]
  CC50: 170 nM
[1]; read-out: pTGI (converted)
  TGI: 87.1 nM
HCC 2998
  GI50: 43.6 nM
HCC 2998; [2]
  CC50: 141 nM
HCC 2998; read-out: pTGI (converted)
  TGI: 79.4 nM
M14
  GI50: 8.32 nM
M14; [2]
  CC50: 100 nM
M14; read-out: pTGI (converted)
  TGI: 39.8 nM
DU-145
  GI50: 47.9 nM
DU-145; [2]
  CC50: 145 nM
DU-145; read-out: pTGI (converted)
  TGI: 83.2 nM
COLO 205
  GI50: 43.6 nM
COLO 205; [2]
  CC50: 141 nM
COLO 205; read-out: pTGI (converted)
  TGI: 79.4 nM
HOP-92
  GI50: 46.8 nM
HOP-92; [2]
  CC50: 145 nM
HOP-92; read-out: pTGI (converted)
  TGI: 83.2 nM
OVCAR-5
  GI50: 46.8 nM
OVCAR-5; [2]
  CC50: 145 nM
OVCAR-5; read-out: pTGI (converted)
  TGI: 81.3 nM
SW-620
  GI50: 9.33 nM
SW-620; [2]
  CC50: 112 nM
SW-620; read-out: pTGI (converted)
  TGI: 42.7 nM
SF-268
  GI50: 38.9 nM
SF-268; [2]
  CC50: 138 nM
SF-268; read-out: pTGI (converted)
  TGI: 74.1 nM
